Data as given in patent publication US20250134909A1, “GEL COMPOSITION FOR PREVENTION OR TREATMENT OF ATOPIC DERMATITIS” (SHAPERON INC., priority 2021, published 2025).

System: atopic dermatitis-induced animal model by DNCB
Assay: Thickness of the epidermis and dermis (H&E), DNCB-induced atopic dermatitis model
Format: in vivo, mice
Conditions: 15th day, FIGS. 5 to 7; for dermal thickness: compared to the DNCB group and the normal Sham group; for skin epithelium thickness: compared to the DNCB group
Experimental: […] of a solution of 2,4-Dinitrochlorobenzene (DNCB) dissolved in acetone at a concentration of 1% or 2% was applied to the backs of mice with hair removed twice a day for 2 days, then on the 3rd day, a solution of […] containing 1% concentration of DNCB dissolved in acetone was applied twice daily, and additional applications of a solution of […] containing 1% concentration of DNCB dissolved in acetone or a solution diluted 10 times were applied twice daily on the shaved backs of mice until the 10th to 11th day starting from the day of the initial application of DNCB solution, to induce atopic dermatitis (FIG. 1).
To compare and confirm the therapeutic effects of 0.5% HY209_HA gel and 5% HY209_PEG gel on atopic dermatitis through measurement of the thickness of the epidermis and dermis in the atopic dermatitis-induced animal model of <Example 2>, each individual in the groups treated with 0.5% HY209_HA Gel, 5% HY209_PEG gel, Maxidex ointment, Eucrisa ointment, and Protopic ointment in <Experimental Example 1> had their atopic dermatitis-induced areas scarified on the 15th day from the induction of atopic dermatitis, and the Sham (untreated) group, where atopic dermatitis was not induced, and the DNCB group, which was not treated after the induction of atopic dermatitis, were also scarified on the 15th day.
After collecting skin tissues from each group of mice, the tissue samples were sliced and then fixed in 10% formalin solution for 24 hours, then rinsed with distilled water, processed into paraffin blocks, and sectioned into […] thickness slices, these slices were stained with Hematoxylin and Eosin (H&E), and observed under an optical microscope, and then the thickness of the epithelium and dermis were measured using image analysis software and analyzed using analysis software.

Compound | dermal thickness | skin epithelium thickness
C=CC[C@@H]1/C=C(\C)C[C@H](C)C[C@H](OC)[C@H]2O[C@@](O)(C(=O)C(=O)N3CCCC[C@H]3C(=O)O[C@H](/C(C)=C/[C@@H]3CC[C@@H](O)[C@H](OC)C3)[C@H](C)[C@@H](O)CC1=O)[C@H](C)C[C@@H]2OC [FK506, Tacrolimus] | recovered close to that of the normal Sham group | significantly reduced
N#Cc1ccc(Oc2ccc3c(c2)COB3O)cc1 [Crisaborole] | recovered close to that of the normal Sham group | significantly reduced
